# Laboratory results published in US6242216A, “Nucleic acids encoding a functional human purinoreceptor P2X2 and P2X4, and methods of production and use thereof” (Abbott Laboratories, priority 1998, dated 2001).
# Several values for one entry are separate records, joined by “and”; a condition that tells them apart may be missing. Equal entries are not always repeated. Where two headings read alike, the source gives them in different places.
# Legend:
# human P2X4 receptor = target: T1, human P2X4 receptor (Homo sapiens, UniProt Q99571); experiment: Two-electrode voltage-clamp of Xenopus oocytes expressing recombinant human P2X4 receptors; type: cell-based
# T1 construct: expressed in transfected cells; host or cells: Xenopus laevis oocytes, nuclear injection of P2X4-pCDNA3.1 DNA (10 ng) or cytoplasmic injection of RNA (50 ng)
# T1 sequence (Q99571 1-388): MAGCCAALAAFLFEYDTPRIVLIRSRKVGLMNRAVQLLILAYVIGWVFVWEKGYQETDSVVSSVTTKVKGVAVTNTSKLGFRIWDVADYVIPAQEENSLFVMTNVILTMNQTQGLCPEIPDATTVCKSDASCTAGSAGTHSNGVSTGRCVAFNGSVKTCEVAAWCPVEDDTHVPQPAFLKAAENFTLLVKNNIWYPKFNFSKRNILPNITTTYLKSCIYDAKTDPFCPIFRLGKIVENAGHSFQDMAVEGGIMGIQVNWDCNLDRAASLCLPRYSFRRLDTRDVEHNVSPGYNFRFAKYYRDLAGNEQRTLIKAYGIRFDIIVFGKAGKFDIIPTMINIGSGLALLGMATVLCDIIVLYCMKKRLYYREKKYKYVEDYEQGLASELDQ
# Description: Responses were measured at a holding potential of -60 mV in modified Barth's solution containing 10 mM BaCl2 and lacking CaCl2 and MgCl2. However, in some experiments, the cell potential was intentionally varied in order to determine the response current-voltage relationship. Agonist was applied briefly using a computer-controlled solenoid valve and a push/pull applicator positioned to within 200-400 μm from the oocyte. Responses were recorded by computer in synchrony with agonist application. Antagonists were included with agonist in the push/pull applicator and were applied to the bath by superfusion for at least 3 minutes before application of agonist. Responses were quantified by measuring the peak amplitude.
# The clone was grown up and prepared in large scale using the QlAgen maxiprep DNA preparation system according to the manufacturer's instructions. The DNA was ethanol precipitated and resuspended in TE buffer. For RNA production, the P2X4 -pCNDA3.1 cvonstruct was linearized by digestion with the restriction enzyme Notl and P2X4 messenger RNA was produced using the T7 promoter in this vector and the Ambion mMessage mMachine in vitro transcription kit according to the manufacturer's instructions.
# For functional analysis of human P2X4 receptors, 10 ng of human P2X4 receptor DNA prepared as described above was injected into the nucleus of Xenopus oocytes. Alternatively, 50 ng of human P2X4 receptor RNA prepared as described above was injected into the ooxyte cytoplasm. Oocytes were incubated in normal Barth's solution containing 100 μg/ml gentamicin for 2-7 days following injection. The response to 10 μM ATP was then recorded.
# hP2X2c = experiment: Two-electrode voltage-clamp of Xenopus oocytes injected with hP2X2c RNA; type: cell-based, human; conditions: 30 μM ATP, transient external application
# Description: (§1) To assess function of the human P2X2 receptors, RNA was synthesized from the clones using the T7 bacterial promoter present on the pCRscript vector and reagents from Ambion (Message Machine; Ambion, Inc., Austin Tex.).
# (§2) Adult female frogs (Xenopus laevis) were anesthetized with 0.2% tricaine before surgery. During surgery, sections of one ovary were removed and oocytes were denuded of overlying follicle cells by agitation for 1-2 hours in 2 mg/ml collagenase (Sigma type IA) in low-Ca^2+ Barth's solution containing (in mM): 88 NaCl, 2.5 KCl, 1.0 MgCl2 10 Na-HEPES (pH 7.4) plus 100 μg/ml gentamicin. Selection of stage V and VI oocytes was begun after approximately 50% of the cells were denuded. Cytoplasmic injections of 50 ng hP2X2a-d RNA were performed on denuded oocytes using a glass microelectrode. Only one receptor subtype RNA was injected per cell. […]
# (§3) Transmembrane currents were recorded using two-electrode voltage-clamp techniques with an Axoclamp-2 A amplifier, and were collected and analyzed using pCLAMP software (Axon Instruments). […] Responses to ATP and α,βme-ATP were routinely recorded at room temperature while the oocyte membrane was voltage-clamped at -60 mV. […]
# hP2X2d = experiment: Two-electrode voltage-clamp of Xenopus oocytes injected with hP2X2d RNA; type: cell-based, human; conditions: 30 μM ATP, transient external application
# Description: as §1, §2, §3
# hP2X2b receptors = target: T2, hP2X2b receptors (Homo sapiens, UniProt Q9UBL9); experiment: Two-electrode voltage-clamp of Xenopus oocytes expressing hP2X2b receptors; type: cell-based
# T2 construct: expressed in transfected cells; host or cells: Xenopus laevis oocytes, cytoplasmic injection of 50 ng in vitro transcribed RNA, one subtype per cell
# T2 sequence (Q9UBL9 1-404 isoform Q9UBL9-2): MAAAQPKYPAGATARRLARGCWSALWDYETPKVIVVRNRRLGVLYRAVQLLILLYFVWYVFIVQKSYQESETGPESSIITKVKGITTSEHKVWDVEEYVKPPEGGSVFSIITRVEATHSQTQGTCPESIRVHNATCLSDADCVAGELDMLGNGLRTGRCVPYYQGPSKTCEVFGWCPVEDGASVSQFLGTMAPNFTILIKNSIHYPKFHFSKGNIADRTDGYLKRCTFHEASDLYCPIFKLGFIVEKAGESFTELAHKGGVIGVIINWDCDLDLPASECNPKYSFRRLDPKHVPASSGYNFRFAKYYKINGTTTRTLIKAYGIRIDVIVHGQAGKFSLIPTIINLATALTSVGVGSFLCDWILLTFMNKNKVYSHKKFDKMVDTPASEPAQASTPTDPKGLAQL
# Description: as §1
# (§4) Adult female frogs (Xenopus laevis) were anesthetized with 0.2% tricaine before surgery. During surgery, sections of one ovary were removed and oocytes were denuded of overlying follicle cells by agitation for 1-2 hours in 2 mg/ml collagenase (Sigma type IA) in low-Ca^2+ Barth's solution containing (in mM): 88 NaCl, 2.5 KCl, 1.0 MgCl2 10 Na-HEPES (pH 7.4) plus 100 μg/ml gentamicin. Selection of stage V and VI oocytes was begun after approximately 50% of the cells were denuded. Cytoplasmic injections of 50 ng hP2X2a-d RNA were performed on denuded oocytes using a glass microelectrode. Only one receptor subtype RNA was injected per cell. Oocytes were used for recording 1-2 days after injection and were maintained at 16-19° C. in normal Barth's solution (incubation medium in mM): 90 NaCl, 1.0 KCl, 0.66 NaNO3, 0.74 CaCl2, 0.82 MgCl2, 2.4 NaHCO3, 2.5 Na-pyruvate, 10 Na-HEPES (pH 7.4) plus 100 μg/ml gentamicin.
# (§5) The standard recording solution contained (in mM): 96 NaCl, 2.0 KCl, 1.8 BaCl2, 1.0 MgCl2, 5.0 Na-pyruvate, and 5.0 Na-HEPES (pH 7.4). BaCl2 was replaced with CaCl2 (1 mM) in some experiments without significant effects on the pharmacological properties of the receptors. All oocyte solutions were diluted in distilled H2 O from 10×stock solutions. Concentrated stocks of agonists and antagonists were made in distilled H2 O and then serially diluted in recording solution to desired final concentrations. All chemicals and agonists (ATP and α,βme-ATP) were obtained from Sigma Chemical Company.
# (§6) Transmembrane currents were recorded using two-electrode voltage-clamp techniques with an Axoclamp-2 A amplifier, and were collected and analyzed using pCLAMP software (Axon Instruments). Electrodes (1.5-2.0 M'.OMEGA.) were filled with 120 mM KCl. Responses to ATP and α,βme-ATP were routinely recorded at room temperature while the oocyte membrane was voltage-clamped at -60 mV. […]
# hP2X2a receptors = target: T3, hP2X2a receptors (Homo sapiens, UniProt Q9UBL9); experiment: Two-electrode voltage-clamp of Xenopus oocytes expressing hP2X2a receptors; type: cell-based
# T3 construct: expressed in transfected cells; host or cells: Xenopus laevis oocytes, cytoplasmic injection of 50 ng in vitro transcribed RNA, one subtype per cell
# T3 sequence (Q9UBL9 1-471): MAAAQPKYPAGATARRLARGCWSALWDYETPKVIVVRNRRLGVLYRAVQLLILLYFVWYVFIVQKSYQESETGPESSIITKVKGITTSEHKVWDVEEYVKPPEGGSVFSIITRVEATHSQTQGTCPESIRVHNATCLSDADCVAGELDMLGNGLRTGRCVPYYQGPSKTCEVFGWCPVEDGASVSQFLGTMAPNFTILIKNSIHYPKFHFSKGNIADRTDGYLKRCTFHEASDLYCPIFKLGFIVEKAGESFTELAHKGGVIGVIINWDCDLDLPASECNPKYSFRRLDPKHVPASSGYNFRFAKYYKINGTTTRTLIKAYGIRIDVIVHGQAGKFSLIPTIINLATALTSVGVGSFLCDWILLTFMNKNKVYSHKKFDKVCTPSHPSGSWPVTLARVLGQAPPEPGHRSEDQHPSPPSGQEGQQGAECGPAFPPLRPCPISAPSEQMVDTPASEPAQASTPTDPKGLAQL
# Description: as §1, §4, §5, §6
smiles,measurement,setting,value
Nc1ncnc2c1ncn2[C@@H]1O[C@H](COP(=O)(O)OP(=O)(O)OP(=O)(O)O)[C@@H](O)[C@H]1O [ATP],EC50,"human P2X4 receptor; DNA-injected oocytes, concentration-response 0.1-1000 μM ATP",~2000 nM and 1000 to 2000 nM
same,EC50,"human P2X4 receptor; RNA-injected oocytes, read-out: ATP EC50",1000 to 2000 nM
same,mixed-conductance cation current on extracellular application of ATP,human P2X4 receptor; oocytes injected with human P2X4 receptor DNA,100-1000 nA
same,agonist effect on receptor current,hP2X2c,had no effect
same,agonist effect on receptor current,hP2X2d,had no effect
same,Hill coefficient (nH),"hP2X2b receptors; oocytes expressing hP2X2b, three cells",1.5
same,EC50,"hP2X2b receptors; oocytes expressing hP2X2b, three cells, -60 mV, read-out: mean ATP EC50 (peak inward current)",20000 nM
same,Hill coefficient (nH),"hP2X2a receptors; oocytes expressing hP2X2a, four cells",1.5
same,EC50,"hP2X2a receptors; oocytes expressing hP2X2a, four cells, -60 mV, read-out: mean ATP EC50 (peak inward current)",16000 nM
Cc1ccc(C(=O)Nc2ccc(S(=O)(=O)O)c3cc(S(=O)(=O)O)cc(S(=O)(=O)O)c23)cc1NC(=O)c1cccc(NC(=O)Nc2cccc(C(=O)Nc3cc(C(=O)Nc4ccc(S(=O)(=O)O)c5cc(S(=O)(=O)O)cc(S(=O)(=O)O)c45)ccc3C)c2)c1 [suramin],antagonism of ATP-induced currents,"human P2X4 receptor; DNA-injected oocytes, suramin 10 μM, ATP 10 μM",failed to depress
same,antagonism of ATP responses,"human P2X4 receptor; RNA-injected oocytes, suramin 1 μM, ATP 3 μM",failed to depress
same,antagonism of ATP responses,"human P2X4 receptor; RNA-injected oocytes, suramin 10 μM, ATP 3 μM",failed to depress
same,remaining activity at 100 µM,"human P2X4 receptor; RNA-injected oocytes, suramin 100 μM, ATP 3 μM, read-out: ATP response remaining, % of control",~80%
"Nc1ncnc2c1ncn2[C@@H]1O[C@H](COP(=O)(O)CP(=O)(O)OP(=O)(O)O)[C@@H](O)[C@H]1O [αβMe-ATP, α,β-methylene-ATP]",Emax,"human P2X4 receptor; RNA-injected oocytes, read-out: maximal current relative to maximal ATP current",20 to 25%
same,agonist effect on receptor current,"hP2X2b receptors; 100 μM agonist, hP2X2b",had no effect
same,agonist effect on receptor current,"hP2X2a receptors; 100 μM agonist, hP2X2a",had no effect
